Source: patent publication US9090900B2, “Coryneform bacterium transformant and process for producing phenol using the same” (priority 2010, dated 2015)
Like-named read-outs stand apart in the source and are kept apart here.

How the values were obtained:
[1] = tested on: Escherichia coli JM109; conditions: LB liquid medium, 37° C.
Experimental: (§1) A growth inhibition test in aerobic culture was performed to examine the influence of phenol on Corynebacterium glutamicum, Escherichia coli, and Pseudomonas putida. Pseudomonas putida S12, which was used for the test, is reported to be a solvent-resistant strain. In the report, disclosed is an unparalleled technology using the strain as a host in phenol production.
Escherichia coli JM109 was applied to LB agar medium (1% polypeptone, 0.5% yeast extract, 0.5% NaCl and 1.5% agar) and was left stand in the dark at 37° C. for 15 hours.
An inoculation loop of the Escherichia coli JM109 grown on a plate as above was inoculated into a test tube containing 10 mL of LB liquid medium (1% polypeptone, 0.5% yeast extract, and 0.5% NaCl), and aerobic culture was performed with shaking at 37° C. for 13 hours.
The Escherichia coli JM109 grown in the above conditions was inoculated into 100 mL of LB liquid medium in such a way that the initial bacterial cell concentration would be OD610=0.05, phenol was added at the same time in such a way that the final concentration would be 0, 0.16, or 0.20 mM, and aerobic culture was performed with shaking at 37° C. The growth of bacterial cells was determined by absorbance measurement at OD610.
(§2) The growth of bacterial cells was determined by absorbance measurement at OD610.

[2] = tested on: Pseudomonas putida S12; conditions: LB (+glucose) liquid medium, 30° C.
Experimental: as §1
(§3) Pseudomonas putida F1 and S12 were applied to LB agar medium (1% polypeptone, 0.5% yeast extract, 0.5% NaCl and 1.5% agar) and were left stand in the dark at 30° C. for 15 hours.
(§4) An inoculation loop of each of the Pseudomonas putida F1 and S12 grown on a plate as above was inoculated into a test tube containing 10 mL of LB (+glucose) liquid medium (1% polypeptone, 0.5% yeast extract, 0.5% NaCl and 0.4% glucose), and aerobic culture was performed with shaking at 30° C. for 13 hours.
(§5) The Pseudomonas putida F1 and S12 grown in the above conditions were each inoculated into 100 mL of LB (+glucose) liquid medium in such a way that the initial bacterial cell concentration would be OD610=0.05, phenol was added at the same time in such a way that the final concentration would be 0, 0.10, or 0.20 […], and aerobic culture was performed with shaking at 30° C.
as §2

[3] = tested on: Pseudomonas putida F1; conditions: LB (+glucose) liquid medium, 30° C.
Experimental: as §1, §3, §4, §5, §2

[4] = tested on: Corynebacterium glutamicum R; conditions: A liquid medium, 33° C.
Experimental: as §1
Corynebacterium glutamicum R was applied to A agar medium (2 g of (NH2)2CO3 7 g of (NH4)2SO4, 0.5 g of KH2PO4, 0.5 g of K2HPO4, 0.5 g of MgSO4.7H2O, 1 mL of 0.06% (w/v) Fe2SO4.7H2O+0.042% (w/v) MnSO4.2H2O, 1 mL of 0.02% (w/v) biotin solution, 2 mL of 0.01% (w/v) thiamin solution, 2 g of yeast extract, 7 g of vitamin assay casamino acid, 40 g of glucose, and 15 g of agar were suspended in 1 L of distilled water) and was left stand in the dark at 33° C. for 15 hours.
An inoculation loop of the Corynebacterium glutamicum R grown on a plate as above was inoculated into a test tube containing 10 mL of A liquid medium (2 g of (NH2)2CO3 7 g of (NH4)2SO4, 0.5 g of KH2PO4, 0.5 g of K2HPO4, 0.5 g of MgSO4.7H2O, 1 mL of 0.06% (w/v) Fe2SO4.7H2O+0.042% (w/v) MnSO4.2H2O, 1 mL of 0.02% (w/v) biotin solution, 2 mL of 0.01% (w/v) thiamin solution, 2 g of yeast extract, 7 g of vitamin assay casamino acid, and 40 g of glucose were suspended in 1 L of distilled water) and was aerobically cultured with shaking at 33° C. for 13 hours.
The Corynebacterium glutamicum R grown in the above conditions was inoculated into 100 mL of A liquid medium in such a way that the initial bacterial cell concentration would be OD610=0.05, phenol was added at the same time in such a way that the final concentration would be 0, 0.16, 0.2, 0.24, or 0.32 mM, and aerobic culture was performed with shaking at 33° C. The growth of bacterial cells was determined by absorbance measurement at OD610.
as §2

SMILES: Oc1ccccc1 [phenol]
- influence of phenol on aerobic proliferation (OD610) ([1]; 0.16% phenol): significantly affected
- influence of phenol on aerobic proliferation (OD610) ([1]; 0.20% phenol): completely inhibited
- influence of phenol on aerobic proliferation (OD610) ([2]; 0.10% phenol): significantly affected
- influence of phenol on aerobic proliferation (OD610) ([2]; 0.20% phenol): completely inhibited
- influence of phenol on aerobic proliferation (OD610) ([3]; 0.10% phenol): significantly affected
- influence of phenol on aerobic proliferation (OD610) ([3]; 0.20% phenol): completely inhibited
- influence of phenol on aerobic proliferation (OD610) ([4]; 0.16% phenol): hardly affected
- influence of phenol on aerobic proliferation (OD610) ([4]; 0.20% phenol): favorable growth
- influence of phenol on aerobic proliferation (OD610) ([4]; 0.24% phenol): able to proliferate
